This is an account of results in paper PMC5789597, “Cytotoxicity of seputhecarpan D, thonningiol and 12 other phytochemicals from African flora towards human carcinoma cells” (BMC Complementary and Alternative Medicine, 2018).

For orientation: IC50 means the point on the concentration scale where inhibition reaches its midpoint.

Molecules are shown by their SMILES. A value given as a limit tells only on which side of the number the result lay.

Data set [1] deals with HepG2 hepatocarcinoma cells. The data set can be described thus: Neutral red (NR) uptake cytotoxicity assay, HepG2. The data set is classed as cell-based, human. Particulars: for IC50: Homo sapiens, HepG2, NR assay, 72 h incubation; for selectivity index, HepG2: IC50 in CRL2120 normal fibroblasts divided by IC50 in HepG2. The text has this: (§1) DMSO at 0.1% was used as solvent control.

Data set [2] has as its system four tested cancer cell lines (MCF-7, DLD-1, Caco-2, HepG2). The data set can be described thus: Neutral red (NR) uptake cytotoxicity assay, summary over the four tested cancer cell lines. The following applies: Homo sapiens; all 4/4 tested cancer cell lines; read-out: IC50 values against the four tested cancer cell lines. The data set is classed as cell-based.
Excerpt: as §1

Data set [3] deals with Caco-2 colorectal adenocarcinoma cells. The data set can be described thus: Neutral red (NR) uptake cytotoxicity assay, Caco-2. The following applies: Homo sapiens, Caco-2, 72 h, read-out: IC50 values, Caco-2.
Excerpt: (§2) Four human carcinoma cell lines and one normal cell line were used. They were: DLD-1 and Caco-2 colorectal adenocarcinoma cell lines, HepG2 hepatocarcinoma cells, MCF-7 breast adenocarcinoma cells and the normal CRL2120 human skin fibroblasts. Caco-2 cells (from the ŞAP Institute of Ankara,Turkey andMCF-7 cells (from ATCC) provided by Prof. Dr. Tansu Koparal (Anadolu University, Eskisehir, Turkey),HepG2, DLD-1 and CRL2120 cells were obtained from American Type Culture Collection (ATCC); DMEM medium (Sigma-aldrich, Munich, Germany) was used to maintain cells as a monolayer and was supplemented with 10% fetal calf serum and 1% penicillin (100 U/mL)-streptomycin (100 μg/mL) in a humidified 5% CO2 atmosphere at 37 °C.
(§3) Dimethylsufoxide (DMSO) at less than 0.1% final concentration was used to dilute the tested samples. DMSO at 0.1% was used as solvent control. The incubation time was 72 h incubation in humidified 5% CO2 atmosphere at 37 °C, followed by NR coloration as previously described [23, 24]. ELx 808 Ultra Microplate Reader (Biotek) equipped with a 540 nm filter was used to measure the absorbance. Each experiment was performed at least three times, with three replicates each. The viability was evaluated based on a comparison with untreated cells. The IC50 values represented the sample’s concentrations required to inhibit 50% of cell proliferation and were calculated from a calibration curve by linear regression using Microsoft Excel [26] as follows: for each sample, the cell growth percentages at the different concentrations were used to draw the calibration curve with logarithmic regression obtained by 2 measuring points (one smaller and one larger than 50%) from where the IC50 value was deduced.
Data set [4] can be described thus: Neutral red (NR) uptake cytotoxicity assay, Caco-2. Particulars: human, Caco-2.
Excerpt: as §2, §3
In data set [5] the test system is MCF-7 breast adenocarcinoma cells. The data set can be described thus: Neutral red (NR) uptake cytotoxicity assay, MCF7. Type of data set: cell-based, human. Particulars: for IC50: Homo sapiens, MCF7, NR assay, 72 h incubation; for selectivity index, MCF7: IC50 in CRL2120 normal fibroblasts divided by IC50 in MCF7.
Excerpt: as §1

Data set [6] has as its system DLD-1 colorectal adenocarcinoma cells. Kind of data set: Neutral red (NR) uptake cytotoxicity assay, DLD-1. The data set is classed as cell-based, human. The following applies: for IC50: Homo sapiens, DLD-1, NR assay, 72 h incubation; for selectivity index, DLD-1: IC50 in CRL2120 normal fibroblasts divided by IC50 in DLD-1.
Excerpt: as §1

In data set [7] the test system is normal CRL2120 human skin fibroblasts. Kind of data set: Neutral red (NR) uptake cytotoxicity assay, normal fibroblasts. Particulars: Skin fibroblast, 72 h incubation. Type of data set: cell-based.
Excerpt: as §1

With `C=C(CO)C1Cc2cc3c(cc2O1)OCC1c2ccc(OC)cc2OC31` (stereo not shown) [Compound 12, seputhecarpan C], the IC50 is 76.7 ± 7.24 µM in data set [1]; under 85 µM in data set [2]; 67.3 ± 3.98 µM in data set [3]; 13.3 ± 0.67 µM in data set [5]; 37.8 ± 1.76 µM in data set [6]; over 114 µM in data set [7]. For the same molecule, in data set [1], the “selectivity index, HepG2” value was over 1.48. Moreover, the selectivity ratio at 72 h in data set [4] was over 1.69. The “selectivity index, MCF7” value in data set [5] is over 8.55. Besides, the “selectivity index, DLD-1” value in data set [6] is on record as over 3.00.
Consider `CC(=O)O[C@H]1CC[C@]2(C)[C@H]3CC=C4[C@@H]5CC(C)(C)CC[C@]5(C)CC[C@@]4(C)[C@]3(C)CC[C@H]2C1(C)C` [Compound 4, β-amyrin acetate], for which the IC50 in data set [1], in data set [3], in data set [5], in data set [6] and in data set [7] was over 85.5 µM each time.
Take `C=C(C)[C@@H]1CC[C@]2(C)CC[C@]3(C)[C@H](CC[C@@H]4[C@@]5(C)CC[C@H](OC(C)=O)C(C)(C)[C@@H]5CC[C@]43C)[C@@H]12` [Compound 5, lupeol acetate]: the IC50 in data set [1] was over 85.5 µM; in data set [3] it was over 85.5 µM; in data set [5], 10.7 ± 0.75 µM; in data set [6], over 85.5 µM; in data set [7] it was over 85.5 µM. In data set [5], the “selectivity index, MCF7” value is over 8.00.
As to `CC1(C)C=Cc2c(O)ccc(C3COc4cc(O)cc(O)c4C3=O)c2O1` (stereo not shown) [Compound 10, glyasperin F], the IC50 is 16.9 ± 1.2 µM in data set [1]; under 85 µM in data set [2]; 17.6 ± 1.39 µM in data set [3]; 11.1 ± 0.88 µM in data set [5]; 20.9 ± 1.64 µM in data set [6]; over 113 µM in data set [7]. For the same molecule, the “selectivity index, HepG2” value in data set [1] is recorded as over 6.69. In addition, in data set [4], the selectivity ratio at 72 h was over 6.42. The “selectivity index, MCF7” value in data set [5] was over 10.14. Further, in data set [6], the “selectivity index, DLD-1” value is on record as over 5.41.
Consider `CO[C@H]1[C@H](O)[C@@H](O)[C@@H](O)[C@@H](O)[C@@H]1O` [Compound 6, 5-O-methyl-myo-inositol or sequoyitol], for which the IC50 is 45.1 ± 3.42 µM in data set [1]; over 206 µM in data set [3]; 167 ± 12 µM in data set [5]; over 206 µM in data set [6]; over 206 µM in data set [7]. Moreover, in data set [1], the “selectivity index, HepG2” value is reported as over 4.57. Further, in data set [5], the “selectivity index, MCF7” value is on record as over 1.24.
`COc1cc(O)c2c(=O)c(O[C@H]3OC(C)[C@@H](O)C(O)[C@H]3O)c(-c3cc(O)c(O)c(O)c3)oc2c1` (stereo partly shown) [Compound 8, europetin 3-O-rhamnoside or 7-O-methylmyricetin 3-O-rhamnoside]: the IC50 in data set [1] was over 83.7 µM; in data set [3], over 83.7 µM; in data set [5], 16.7 ± 1.81 µM; in data set [6] it was over 83.7 µM; in data set [7] it was over 83.7 µM. Also, in data set [5], the “selectivity index, MCF7” value is given as over 5.00.
Take `C[C@H]1C(=O)CC[C@@H]2[C@]1(C)CC[C@H]1[C@@]2(C)CC[C@@]2(C)[C@@H]3CC(C)(C)CC[C@]3(C)CC[C@]12C` [Compound 2, friedelanone]: the IC50 in data set [1] was over 93.9 µM; in data set [3] it was over 93.9 µM; in data set [5], 70.8 ± 4.95 µM; in data set [6] it was over 93.9 µM; in data set [7] it was over 93.9 µM. Besides, the “selectivity index, MCF7” value in data set [5] was over 1.33.
As for `CC1(C)C=Cc2c(cc(O)c3c(=O)c4cc5c(c(O)c4oc23)OC(C)(C)C=C5)O1` [Compound 14, rheediaxanthone A], the IC50 in data set [1] was 14.6 ± 0.93 µM; in data set [3], 3.15 ± 0.01 µM; in data set [5], over 102 µM; in data set [6], over 102 µM; in data set [7] it was 80.3 ± 5.42 µM. The “selectivity index, HepG2” value in data set [1] stood at 5.50. In data set [4], the selectivity ratio at 72 h is 35.5.
As for `CCC(/C=C/[C@@H](C)C1CCC2C3=CCC4C[C@@H](O)CCC4(C)C3CCC21C)C(C)C` (stereo partly drawn) [Compound 1, β-spinasterol], the IC50 was over 97.1 µM in data set [1]; 69.8 ± 5.12 µM in data set [3]; over 97.1 µM in data set [5]; over 97.1 µM in data set [6]; over 97.1 µM in data set [7]. For the same molecule, in data set [4], the selectivity ratio at 72 h was over 1.39.
`C=C(CO)C1Cc2cc3c(cc2O1)OCC1c2ccc(O)cc2OC31` (stereo not shown) [Compound 11, seputhecarpan B]: the IC50 in data set [1] is 61.9 ± 4.2 µM; in data set [2], under 85 µM; in data set [3], 84.4 ± 6.32 µM; in data set [5], 11.9 ± 0.94 µM; in data set [6] it was 57.9 ± 3.89 µM; in data set [7] it was over 118 µM. In addition, the “selectivity index, HepG2” value in data set [1] is listed as over 1.91. In data set [4], the selectivity ratio at 72 h was over 1.4. Besides, the “selectivity index, MCF7” value in data set [5] is over 9.93. Also, in data set [6], the “selectivity index, DLD-1” value is over 2.04.
Regarding `COc1cc(O)c2c(=O)c(O[C@H]3OC(C)[C@@H](O)C(O)[C@H]3O)c(-c3ccc(O)c(O)c3)oc2c1` (stereo partly shown) [Compound 7, rhamnitrin or 7-O-methylquercetin 3-O-rhamnoside], the IC50 in data set [1] was over 86.6 µM; in data set [3] it was over 86.6 µM; in data set [5], 60.9 ± 5.39 µM; in data set [6], over 86.6 µM; in data set [7] it was 52.3 µM. Also, the “selectivity index, MCF7” value in data set [5] worked out at 0.86.
